{"source": "patent US4075194A", "about": "“Novel synthetic undecapeptide and clinical assay” (Yeda Research and Development Co., Ltd., priority 1976, dated 1978)", "molecules": {"B1": {"name": "Pure CEA: carcinoembryonic antigen purified from colonic tumor tissue by perchloric acid extraction, chromatography and block electrophoresis (protein, UniProt P06731 35-685, looked up)", "Cell adhesion molecule CEACAM5": "KLTIESTPFNVAEGKEVLLLVHNLPQHLFGYSWYKGERVDGNRQIIGYVIGTQQATPGPAYSGREIIYPNASLLIQNIIQNDTGFYTLHVIKSDLVNEEATGQFRVYPELPKPSISSNNSKPVEDKDAVAFTCEPETQDATYLWWVNNQSLPVSPRLQLSNGNRTLTLFNVTRNDTASYKCETQNPVSARRSDSVILNVLYGPDAPTISPLNTSYRSGENLNLSCHAASNPPAQYSWFVNGTFQQSTQELFIPNITVNNSGSYTCQAHNSDTGLNRTTVTTITVYAEPPKPFITSNNSNPVEDEDAVALTCEPEIQNTTYLWWVNNQSLPVSPRLQLSNDNRTLTLLSVTRNDVGPYECGIQNELSVDHSDPVILNVLYGPDDPTISPSYTYYRPGVNLSLSCHAASNPPAQYSWLIDGNIQQHTQELFISNITEKNSGLYTCQANNSASGHSRTTVKTITVSAELPKPSISSNNSKPVEDKDAVAFTCEPEAQNTTYLWWVNGQSLPVSPRLQLSNGNRTLTLFNVTRNDARAYVCGIQNSVSANRSDPVTLDVLYGPDTPIISPPDSSYLSGANLNLSCHSASNPSPQYSWRINGIPQQHTQVLFIAKITPNNNGTYACFVSNLATGRNNSIVKSITVSASGTSPGLSA"}}, "key": {"anti-CEA(1-11)-BSA serum": {"test_system": "anti-CEA(1-11)-BSA serum", "experiment": "Inhibition of inactivation of CEA(1-11)-T4 by anti-CEA(1-11)-BSA serum", "assay_type": "binding, rabbit", "conditions": "for inhibition of the inactivation of CEA(1-11)-T4: in words", "description": "Inactivation and Inhibition of Inactivation of CEA(1-11)-coated T4 Bacteriophage. The preparation of CEA(1-11)-coated T4 bacteriophage was carried out according to the procedure described by Haimovich et al., Biochim. Biophys. Acta 207 (1970) 115, making use of glutaraldehyde as crosslinking agent. The resulting modified bacteriophage preparation was tested for inactivation with anti-CEA(1-11)-BSA serum, by incubation for 21/2 hr at 37° in the presence of different dilutions of the antiserum, and monitoring the surviving phage by subsequent plating with bacteria.\nIn inhibition experiments the inhibitors were allowed to react at room temperature, overnight, with the amount of antiserum that would have caused approximately 90% inactivation of the bacteriophage conjugate, Haimovich et al. Biochim. Biophys. Acta 207 (1970) 125. The modified bacteriophage was then added to the mixture and the number of surviving phage was determined as described above. The percentage of inhibition was calculated from the extent of inactivation in the presence and in the absence of the inhibitor."}, "[1]": {"experiment": "Immunization of rabbits, antibody production", "assay_type": "in vivo, rabbit", "conditions": "intradermal in complete Freund's adjuvant, in words", "description": "Immunization Procedure. Antisera against the CEA(1-11) peptide were obtained by immunizing rabbits with CEA(1-11) as the free peptide and with the two conjugates CEA(1-11)-A--L and CEA(1-11)-BSA. The rabbits were immunized by multisite intradermal injections in complete Freund's adjuvant. Each rabbit received two injections of 4 mg at 2-week intervals and was subsequently bled weekly from the marginal vein, starting 1 week after the last injection."}, "[2]": {"test_system": "antisera agglutinating CEA(1-11)-A--L-coated sheep erythrocytes", "experiment": "Inhibition of passive hemagglutination", "assay_type": "binding", "conditions": "serum concentration twice that of the hemagglutination titer", "description": "Hemagglutination and Inhibition of Hemagglutination. Sheep erythrocytes were treated with formalin, tanned, and coated with the CEA(1-11) peptide or with the conjugates (CEA(1-11)-A--L or CEA(1-11)-BSA, Herbert: Handbook Exp. Immun., Oxford (1964), 720, Blackwell, Sci. Pub.\nPassive microhemagglutination tests, Kabat: Structural Concepts in Immun. and Immunochem. (1968), Holt, Reinhart and Winston, Inc., N.Y., were performed on disposable microtiter plates (Cooke Engineering Co., Alexandira, Va.) by 2-fold serial dilutions of antisera in phosphate-buffered saline (0.15 M NaCl-0.01 M sodium phosphate buffer, pH 7.0), containing 0.1% ovalbumin (twice crystallized, Schwarz/Mann). The plates were incubated at room temperature and read after 2 and 4 hr.\nIn inhibition experiments serial dilutions of the respective inhibitor were allowed to react for 30 min with the antisera (at the last dilution that had given positive agglutination) prior to the addition of the coated erythrocytes. Inhibition results were also read after 2 and 4 hr."}}, "note": "Ends that are not written are not given here."}
{"molecule": "LNFPTSEITLK [CEA(1-11), synthetic undecapeptide corresponding to the first eleven NH2-terminal residues of CEA, with leucine replacing valine in the 11-position]", "values": [{"measurement": "inhibition of the inactivation of CEA(1-11)-T4", "setting": "anti-CEA(1-11)-BSA serum", "result": "could be inhibited"}, {"measurement": "Inhibition (%)", "setting": "anti-CEA(1-11)-BSA serum; inhibitor concentration 0.001 μg/ml", "result": 0, "unit": "%"}, {"measurement": "Inhibition (%)", "setting": "anti-CEA(1-11)-BSA serum; inhibitor concentration 0.0033 μg/ml", "result": 38, "unit": "%"}, {"measurement": "Inhibition (%)", "setting": "anti-CEA(1-11)-BSA serum; inhibitor concentration 0.01 μg/ml", "result": 64, "unit": "%"}, {"measurement": "Inhibition (%)", "setting": "anti-CEA(1-11)-BSA serum; inhibitor concentration 0.033 μg/ml", "result": 82, "unit": "%"}, {"measurement": "Inhibition (%)", "setting": "anti-CEA(1-11)-BSA serum; inhibitor concentration 0.1 μg/ml", "result": 92, "unit": "%"}, {"measurement": "Inhibition (%)", "setting": "anti-CEA(1-11)-BSA serum; inhibitor concentration 0.33 μg/ml", "result": 100, "unit": "%"}, {"measurement": "Inhibition (%)", "setting": "anti-CEA(1-11)-BSA serum; inhibitor concentration 1 μg/ml", "result": 98, "unit": "%"}, {"measurement": "Inhibition (%)", "setting": "anti-CEA(1-11)-BSA serum; inhibitor concentration 3 μg/ml", "result": 100, "unit": "%"}, {"measurement": "antibody production on immunization", "setting": "[1]", "result": "antisera of low titer"}, {"measurement": "lowest concentration of inhibitor that still prevents agglutination", "setting": "[2]; antiserum against CEA(1-11)-A--L", "result": 1, "unit": "µg/mL"}, {"measurement": "lowest concentration of inhibitor that still prevents agglutination", "setting": "[2]; antiserum against CEA(1-11)-BSA", "result": 10, "unit": "µg/mL"}, {"measurement": "lowest concentration of inhibitor that still prevents agglutination", "setting": "[2]; antiserum against Crude CEA", "result": 100, "unit": "µg/mL"}, {"measurement": "lowest concentration of inhibitor that still prevents agglutination", "setting": "[2]; antiserum against Pure CEA", "result": 1, "unit": "µg/mL"}]}
{"molecule": "B1", "values": [{"measurement": "inhibition of the inactivation of CEA(1-11)-T4", "setting": "anti-CEA(1-11)-BSA serum", "result": "No inhibition"}]}
